# In patent US11311525B2, “Use of alpha 7 nicotinic acetylcholine receptor agonists” (Novartis AG, priority 2013, dated 2022):
# Columns and labels:
# [1] = test system: brain tMHA levels; assay: Brain tele-methylhistamine (tMHA) levels by LC-MS; format: in vivo, mice; details: oral, 30 minutes after administration
# Experimental: Histamine (HA) is released all over the brain by tuberomammillary nucleus neurons. […] HA is metabolized by histamine-N-methyltransferase to tele-methylhistamine (tMHA) in some tissues, including brain.
# Mice (n=8) were treated during the first hour of the lights-on period and sacrificed 30 min later. Brain tissue was collected and subjected to LC-MS analysis (Croyal et al. Analytical Biochemistry, 2011, 409:28-36) to determine t-MHA levels.
# [2] = test system: Cynomolgus monkey; assay: Signs for emergence from ketamine/sevoflurane anesthesia in nonhuman primate (PET experiment); format: in vivo
# Experimental: Said experiment was performed on the α7 nAChR in the non-human primate (NHP) brain.
# An animal (Cynomolgus monkey, male, 5.8 kg) was anesthesized for the entire duration of the PET experiment, i.e. for approximately 7.5 hours. Due to the nature of these experiments, it is crucial that anesthesia is maintained.
# General anesthesia was induced by i.m. injection of ketamine hydrochloride (10 mg/kg, Ketaminol, Intervet AB). The animal was intubated and general anesthesia was maintained by inhalational administration of sevoflurane (1.5-8%, Abbott Scandinavia AB). Body temperature was maintained by Bair Hugger Model 505 (Arizant Healthcare Inc., Eden Prairie, Minn., USA). ECG, pulse, blood pressure, respiration rate, oxygen saturation and tidal CO2 level were monitored continuously during the experiment. Ventilation of the animal (breathing frequency and volume) was controlled by machine during the general anesthesia. The animal underwent two consecutive PET scans. The PET ligand was administered i.v. at doses too low to have a pharmacodynamic effect (i.e. total dose of 0.16 and 0.25 μg). Before the start of the second PET scan, 10 mg/kg of compound A-1 was administered to the animal using an oral gavage tube.
# [3] = test system: orexin-deficient mice; assay: Orexin-deficiency model: number of narcoleptic episodes (behavioral arrests); format: in vivo
# Excerpt: Male transgenic mice with a knockout of the orexin peptide gene are used. Orexin-deficient mice express a phenotype with cataplexy events (observed as ‘behavioral arrests’) and a disrupted sleep pattern including fragmented sleep and sleepiness in their active period.
# The animals are observed and videotaped via infrared cameras during the first hours of the lights-off period which is the active phase of nocturnal rodents like mice. At this time, orexin-deficient mice show the most ‘behavioral arrests’. The number of these events can be furthermore increased by presenting a new environment. For this purpose, new saw dust, a running wheel, marbles and tunnels are placed in the test environment. The number of ‘behavioral arrests’ are offline counted by the experimenter for each hour of recording. Behavioral arrests were defined by phases of total inactivity outside the next box, which last longer than 10 second, preceded and followed by robust locomotor activity (see also Scammell et al., 2009, Sleep 32(1): 111-116). Some of the animals have temporal skull EEG electrodes implanted which are connected to transmitters. The EEG is recorded via a receiver and stored on a PC for further analysis. EEG is used to assess and to quantify sleep behavior and vigilance stage.
# A cross-over design is used because of the high inter- and intra-individual variability of the behaviors to be observed. Furthermore, to avoid habituation to the test environment, the animals are only tested once per week in the test environment. During the remaining days, the animals are in their homecage.
# For each experimental session, 3-4 mice are put into the test environment 3 hours before lights-off. The first experimental session (week 1) is used to get a baseline (without treatment). The second and third sessions (weeks 2+3) are used for treatment (vehicle & compound, cross-over design, administration 5 minutes before lights-off). The fourth and last experimental session is again without treatment to evaluate a post-treatment baseline.
# [4] = test system: mice; assay: EEG assessment of sleep behavior and vigilance stage; format: in vivo; details: for Active wake (β and γ frequencies), mean difference drug-vehicle / NREM (δ frequency), mean difference drug-vehicle / Quiet wake (α frequency), mean difference drug-vehicle / REM (θ frequency), mean difference drug-vehicle: 30 mg/kg oral
# Experimental: Animals have temporal skull EEG electrodes implanted which are connected to transmitters. Animals were group-housed (2-4) per cage at a constant temperature of 22±1° C., on a 12:12 light-dark schedule. The EEG is recorded via a receiver and stored on a PC for further analysis. EEG is used to assess and to quantify sleep behavior and vigilance stage.
# Animals were given a 1-day period of acclimatization in the recording cages with recording cables connected. On the 1st day of the experiment, EEG recordings were made continuously during a 22-hours period beginning at 11 A.M., 15 min after vehicle administration. On the second day of the experiment, EEG recordings were carried out in the same way, but 15 minutes after drug administration. In this way, each animal served as its own control. 10 animals were recorded from simultaneously in each experiment. Automatic evaluation of the nycthemeral cycle (REM sleep, classical sleep, wakefulness and an awake non-vigilant state termed “drowsiness”) was performed as described (Vigouret et al., 1978 Pharmacology 16 Suppl 1:156-73). In the present context, “quiet wake” and “active wake”, describe conscious animals in a resting and an active state, respectively, while “REM” and “NREM” represent sleep states.
# FIG. 3 depicts the effects of 30 mg/kg compound B-1, orally administered 6 h after lights on (9:00) in mice (n=10) on quiet wake (α frequency, 9.5-12.5 Hz), active wake (β frequency, 12.5-30.5 Hz; and γ frequency, >30.5 Hz), REM sleep (θ frequency, 4.5-9.5 Hz) and NREM sleep (δ frequency, <4.5 Hz). Assessment period shown is 3 hours.
# [5] = cited from earlier work
# [6] = 30 mg/kg oral 6 h after lights on, 3 hours assessment
structure (smiles),measurement,setting,value
"C[C@H](OC(=O)N[C@@H]1CN2CCC1CC2)c1ccccc1F [A-1, (S)-(1-aza-bicyclo[2.2.2]oct-3-yl)-carbamic acid (S)-1-(2-fluoro-phenyl)-ethyl ester]",brain tMHA levels,[1]; 10 mg/kg dose,significant elevation
same,change in breathing behavior (sign for emergence from general anesthesia),"[2]; 10 mg/kg oral gavage, fifteen minutes after administration, sevoflurane 2.9%",shallow breathing was observed
same,doses of sevoflurane necessary to maintain anesthesia after the compound,"[2]; rest of experiment (about two hours) after 10 mg/kg oral, 2.6-2.9% before the compound",3.0-3.7%
"Cc1ccc(-c2ccc(O[C@H]3CN4CCC3CC4)cn2)cc1 [B-1, (R)-3-(6-p-tolyl-pyridin-3-yloxy)-1-aza-bicyclo[2.2.2]octane]",brain tMHA levels,[1]; all doses tested,significantly elevated
same,"decrease of number of narcoleptic episodes, first hour of the observation period","[3]; 10 mg/kg orally directly before lights-off, p<0.05 Anova",ca. 66%
same,effect on NREM sleep,[4]; [6],decline of NREM sleep
same,effect on time spent in quiet wake,[4]; [6],increases the time spent in quiet wake
same,"Active wake (β and γ frequencies), mean difference drug-vehicle",[4]; time point 9:30,0.9 min
same,"NREM (δ frequency), mean difference drug-vehicle",[4]; time point 9:30,-12.4 min
same,"Quiet wake (α frequency), mean difference drug-vehicle",[4]; time point 9:30,14.3 min
same,"REM (θ frequency), mean difference drug-vehicle",[4]; time point 9:30,-2.2 min
same,"Active wake (β and γ frequencies), mean difference drug-vehicle",[4]; time point 10:30,3.6 min
same,"NREM (δ frequency), mean difference drug-vehicle",[4]; time point 10:30,-7.1 min
same,"Quiet wake (α frequency), mean difference drug-vehicle",[4]; time point 10:30,6.1 min
same,"REM (θ frequency), mean difference drug-vehicle",[4]; time point 10:30,-2.1 min
same,"Active wake (β and γ frequencies), mean difference drug-vehicle",[4]; time point 11:30,0.1 min
same,"NREM (δ frequency), mean difference drug-vehicle",[4]; time point 11:30,2.1 min
same,"Quiet wake (α frequency), mean difference drug-vehicle",[4]; time point 11:30,-1.8 min
same,"REM (θ frequency), mean difference drug-vehicle",[4]; time point 11:30,-0.9 min
same,"Active wake (β and γ frequencies), mean difference drug-vehicle",[4]; time point 12:30,0.3 min
same,"NREM (δ frequency), mean difference drug-vehicle",[4]; time point 12:30,-0.1 min
same,"Quiet wake (α frequency), mean difference drug-vehicle",[4]; time point 12:30,-0.9 min
same,"REM (θ frequency), mean difference drug-vehicle",[4]; time point 12:30,-0.2 min
"C[C@H]1[C@H](Oc2ccc(-c3ccc4[nH]ccc4c3)nn2)C2CCN1CC2 [B-4, (2S,3R)-3-[6-(1H-indol-5-yl)-pyridazin-3-yloxy]-2-methyl-1-aza-bicyclo[2.2.2]octane]","decrease of number of narcoleptic episodes, whole 4 hours observation period","[3]; 3 mg/kg orally directly before lights-off, p=0.03",ca. 25%
same,"reduction of number of narcoleptic episodes, first hour","[3]; 3 mg/kg orally directly before lights-off, p=0.04",ca. 47%
CCCC(C)C1(CC)C(=O)NC(=S)NC1=O (centres unmarked) [thiopentone],dose remaining in the body,[5]; at 24 hours,≤ 30%
same,"elimination by oxidative metabolism in the liver, rate",[5]; in vivo,15 % per hour
same,elimination half-life,[5]; in vivo,3.4 to 22 h
same,"initial drug effect terminated by redistribution, time",[5]; in vivo,5 to 15 min
